Drawing on ChEMBL document CHEMBL1143950, “Antifungal and cytotoxic activities of some N-substituted aniline derivatives bearing a hetaryl fragment” (Bioorg Med Chem, 2008), this text covers MIC for twelve compounds.

Structures are written as SMILES. Converted amounts (≈) assume the structure as drawn.

Holding throughout (assay type): functional
The test system of one assay is Trichophyton rubrum. Description: Antifungal activity against Trichophyton rubrum C113 by microbroth dilution method. For orientation: Broth dilution looks for growth in wells or tubes with falling amounts of substance.
A further assay deals with Aspergillus niger. The experiment in a line: Antifungal activity against Aspergillus niger ATCC 9029 by micro-broth dilution method.
A further assay relates to Candida tropicalis. Description: Antifungal activity against Candida tropicalis C131 by micro-broth dilution method.
For another assay, the system named is Aspergillus fumigatus. Description: Antifungal activity against Aspergillus fumigatus ATCC 26934 by micro-broth dilution method.
A further assay concerns Aspergillus flavus. The experiment in a line: Antifungal activity against Aspergillus flavus ATCC 9170 by micro-broth dilution method.
For the next assay, the system named is Saccharomyces cerevisiae. The experiment in a line: Antifungal activity against Saccharomyces cerevisiae ATCC 9763 by microbroth dilution method.
The subject of a further assay is Cryptococcus neoformans. Description: Antifungal activity against Cryptococcus neoformans ATCC 32264 by microbroth dilution method.
For another assay, the system named is Nannizzia gypsea. Description: Antifungal activity against Microsporum gypseum C115 by microbroth dilution method.
Assay [1] has as its system Trichophyton mentagrophytes. The experiment in a line: Antifungal activity against Trichophyton mentagrophytes ATCC 9972 by micro-broth dilution method.
A further assay concerns Candida albicans. The experiment in a line: Antifungal activity against Candida albicans ATCC 10231 by micro-broth dilution method.

What is called MIC is the least concentration at which growth counts as inhibited. Read a high MIC as a need for much substance. In the case of `O=[N+]([O-])c1cccc(NCc2cccnc2)c1`, the minimal inhibitory concentration (MIC) in the assay on Trichophyton rubrum was 25 µg/mL (≈ 109 µM); in the assay on Aspergillus niger, more than 250 µg/mL; in the assay on Candida tropicalis, more than 250 µg/mL; in the assay with Aspergillus fumigatus it was more than 250 µg/mL; against Aspergillus flavus, more than 250 µg/mL; against Saccharomyces cerevisiae, more than 250 µg/mL. Moreover, the MIC in the assay with Cryptococcus neoformans was more than 250 µg/mL; against Nannizzia gypsea, 25 µg/mL (≈ 109 µM); in assay [1], 25 µg/mL (≈ 109 µM); against Candida albicans, more than 250 µg/mL.

Consider `c1ccc(NCc2cccs2)cc1`, for which the MIC against Trichophyton rubrum is 12.5 µg/mL (≈ 66 µM); against Aspergillus niger, more than 250 µg/mL; in the assay on Candida tropicalis it was more than 250 µg/mL; in the assay on Aspergillus fumigatus it was more than 250 µg/mL; against Aspergillus flavus it was more than 250 µg/mL; with Saccharomyces cerevisiae it was more than 250 µg/mL. Also, the MIC is more than 250 µg/mL against Cryptococcus neoformans, 25 µg/mL (≈ 132 µM) against Nannizzia gypsea, 25 µg/mL (≈ 132 µM) in assay [1] and more than 250 µg/mL in the assay on Candida albicans.

Consider `Cc1cc(C)cc(NCc2ccccn2)c1`, for which the MIC against Trichophyton rubrum was 50 µg/mL (≈ 236 µM); against Aspergillus niger it was 100 µg/mL (≈ 471 µM); against Candida tropicalis, 200 µg/mL (≈ 942 µM); against Aspergillus fumigatus, 100 µg/mL (≈ 471 µM); against Aspergillus flavus, 100 µg/mL (≈ 471 µM); in the assay on Saccharomyces cerevisiae, more than 250 µg/mL. For the same compound, the MIC against Cryptococcus neoformans was 50 µg/mL (≈ 236 µM); with Nannizzia gypsea it was 50 µg/mL (≈ 236 µM); in assay [1], 50 µg/mL (≈ 236 µM); in the assay with Candida albicans it was more than 250 µg/mL.

With `Cc1ccc(NCc2ccco2)cc1`, the MIC in the assay on Trichophyton rubrum was 25 µg/mL (≈ 134 µM); in the assay on Aspergillus niger, 250 µg/mL (≈ 1340 µM); against Candida tropicalis, 250 µg/mL (≈ 1340 µM); against Aspergillus fumigatus, 125 µg/mL (≈ 668 µM); in the assay with Aspergillus flavus, 250 µg/mL (≈ 1340 µM); against Saccharomyces cerevisiae it was more than 250 µg/mL. The MIC is 100 µg/mL (≈ 534 µM) in the assay on Cryptococcus neoformans, 100 µg/mL (≈ 534 µM) with Nannizzia gypsea, 50 µg/mL (≈ 267 µM) in assay [1] and more than 250 µg/mL with Candida albicans.

On to `c1ccc(NCc2ccco2)cc1`, for which the MIC in the assay with Trichophyton rubrum was 100 µg/mL (≈ 577 µM); with Aspergillus niger, 100 µg/mL (≈ 577 µM); with Candida tropicalis it was 250 µg/mL (≈ 1440 µM); in the assay with Aspergillus fumigatus, 62.5 µg/mL (≈ 361 µM); against Aspergillus flavus, 100 µg/mL (≈ 577 µM); in the assay on Saccharomyces cerevisiae, more than 250 µg/mL. In addition, the MIC was 250 µg/mL (≈ 1440 µM) in the assay on Cryptococcus neoformans, 100 µg/mL (≈ 577 µM) against Nannizzia gypsea, 100 µg/mL (≈ 577 µM) in assay [1] and 250 µg/mL (≈ 1440 µM) against Candida albicans.

For `Cc1cc(C)cc(NCc2cccnc2)c1`, the MIC against Trichophyton rubrum was 25 µg/mL (≈ 118 µM); with Aspergillus niger it was 200 µg/mL (≈ 942 µM); with Candida tropicalis, more than 250 µg/mL; against Aspergillus fumigatus, 100 µg/mL (≈ 471 µM); in the assay with Aspergillus flavus, 200 µg/mL (≈ 942 µM); against Saccharomyces cerevisiae, 200 µg/mL (≈ 942 µM). The MIC in the assay on Cryptococcus neoformans is 100 µg/mL (≈ 471 µM); against Nannizzia gypsea it was 25 µg/mL (≈ 118 µM); in assay [1] it was 25 µg/mL (≈ 118 µM); against Candida albicans it was more than 250 µg/mL.

`c1ccc(NCc2ccoc2)cc1`: the minimal inhibitory concentration (MIC) against Trichophyton rubrum was 125 µg/mL (≈ 722 µM); in the assay with Aspergillus niger, 250 µg/mL (≈ 1440 µM); against Candida tropicalis, 250 µg/mL (≈ 1440 µM); against Aspergillus fumigatus, 250 µg/mL (≈ 1440 µM); in the assay with Aspergillus flavus, 250 µg/mL (≈ 1440 µM); in the assay on Saccharomyces cerevisiae, 250 µg/mL (≈ 1440 µM). The minimum inhibitory concentration (MIC) against Cryptococcus neoformans was determined as 125 µg/mL (≈ 722 µM); against Nannizzia gypsea, 250 µg/mL (≈ 1440 µM); in assay [1] it was 125 µg/mL (≈ 722 µM); in the assay on Candida albicans, 250 µg/mL (≈ 1440 µM).

In the case of `Cn1cccc1CNc1ccc(Cl)cc1`, the MIC in the assay with Trichophyton rubrum was 250 µg/mL (≈ 1130 µM); in the assay with Aspergillus niger, more than 250 µg/mL; against Candida tropicalis, more than 250 µg/mL; in the assay on Aspergillus fumigatus, more than 250 µg/mL; in the assay with Aspergillus flavus, more than 250 µg/mL; with Saccharomyces cerevisiae, more than 250 µg/mL. For the same compound, the minimum inhibitory concentration (MIC) is 125 µg/mL (≈ 566 µM) in the assay on Cryptococcus neoformans, more than 250 µg/mL in the assay on Nannizzia gypsea, 250 µg/mL (≈ 1130 µM) in [1] and more than 250 µg/mL in the assay with Candida albicans.

As to `c1ccc(NCc2ccsc2)cc1`, the MIC with Trichophyton rubrum turned out to be 125 µg/mL (≈ 660 µM); in the assay with Aspergillus niger, 250 µg/mL (≈ 1320 µM); in the assay on Candida tropicalis it was 250 µg/mL (≈ 1320 µM); against Aspergillus fumigatus, 250 µg/mL (≈ 1320 µM); in the assay with Aspergillus flavus it was 250 µg/mL (≈ 1320 µM); with Saccharomyces cerevisiae it was 250 µg/mL (≈ 1320 µM). Also, the minimum inhibitory concentration (MIC) against Cryptococcus neoformans turned out to be 250 µg/mL (≈ 1320 µM); in the assay with Nannizzia gypsea, 250 µg/mL (≈ 1320 µM); in assay [1], 125 µg/mL (≈ 660 µM); in the assay with Candida albicans, 250 µg/mL (≈ 1320 µM).

`Ic1ccc(NCc2cccnc2)cc1`: the minimum inhibitory concentration (MIC) with Trichophyton rubrum worked out at 25 µg/mL (≈ 80.6 µM); against Aspergillus niger it was 100 µg/mL (≈ 322 µM); against Candida tropicalis, 200 µg/mL (≈ 645 µM); with Aspergillus fumigatus, 50 µg/mL (≈ 161 µM); in the assay with Aspergillus flavus, 50 µg/mL (≈ 161 µM); in the assay with Saccharomyces cerevisiae, 200 µg/mL (≈ 645 µM). Also, the MIC is 50 µg/mL (≈ 161 µM) in the assay on Cryptococcus neoformans, 50 µg/mL (≈ 161 µM) in the assay on Nannizzia gypsea, 25 µg/mL (≈ 80.6 µM) in assay [1] and more than 250 µg/mL against Candida albicans.

Take `Cc1ccc(NCc2ccccn2)cc1`: the minimum inhibitory concentration (MIC) is 50 µg/mL (≈ 252 µM) against Trichophyton rubrum; more than 250 µg/mL against Aspergillus niger; more than 250 µg/mL against Candida tropicalis; more than 250 µg/mL against Aspergillus fumigatus; more than 250 µg/mL against Aspergillus flavus; more than 250 µg/mL in the assay on Saccharomyces cerevisiae. In addition, the MIC was more than 250 µg/mL in the assay on Cryptococcus neoformans, 50 µg/mL (≈ 252 µM) against Nannizzia gypsea, 50 µg/mL (≈ 252 µM) in assay [1] and more than 250 µg/mL in the assay on Candida albicans.

On to `c1ccc(NCc2cccnc2)cc1`, for which the MIC against Trichophyton rubrum is 125 µg/mL (≈ 678 µM); against Aspergillus niger, 250 µg/mL (≈ 1360 µM); against Candida tropicalis, 250 µg/mL (≈ 1360 µM); against Aspergillus fumigatus, 250 µg/mL (≈ 1360 µM); in the assay on Aspergillus flavus, 250 µg/mL (≈ 1360 µM); against Saccharomyces cerevisiae, more than 250 µg/mL. Also, the MIC against Cryptococcus neoformans was more than 250 µg/mL; in the assay with Nannizzia gypsea, 125 µg/mL (≈ 678 µM); in [1], 125 µg/mL (≈ 678 µM); against Candida albicans, 250 µg/mL (≈ 1360 µM).
